Measurements published in paper PMC3726442 (PLoS ONE, 2013).

Assay: Plasma concentrations of tamoxifen and its metabolites in breast cancer patients on tamoxifen, by HPLC-tandem mass spectrometry
From the text: One hundred and thirty five Caucasian patients of Spanish descent recently diagnosed with BC were recruited from the center Fundación Tejerina-Centro de Patología de la Mama (Madrid). Premenopausal and postmenopausal women were enrolled when started on TAM as standard adjuvant therapy after undergoing primary surgery, radiation and adjuvant chemotherapy. Patients were excluded if they had started TAM therapy simultaneously with either adjuvant chemotherapy or adjuvant radiation therapy (or both) or if they were undergoing other adjuvant endocrine therapies. Patients who were pregnant or breast-feeding were also excluded from the study. […] Blood samples were collected within 3 to 60 months of initiating TAM treatment.
Venous blood was collected from all 135 subjects before taking their daily 20- mg dose of TAM. Ten milliliters of heparin plasma were separated by centrifugation and immediately stored at −20°C until analysis. In addition, one milliliter of an EDTA blood sample was taken for subsequent DNA extraction and genotyping. DNA was isolated from peripheral leukocytes using a QIAamp DNA Blood Mini Kit® (Qiagen, Madrid, Spain) according to the manufacturer’s instructions. The DNA concentration was determined and adjusted to 2–20 ng/ µL.
TAM and its metabolites were separated and quantified by high-pressure liquid chromatography-tandem mass spectrometry using an Agilent HPLC 1200 system. HPLC experiments were performed using a binary pump G1312A, a G1316A column oven, G1379B degasser and an automatic injector H-ALS G1367B. Mobile phase A and phase B consisted of 0.1% formic acid in water and acetonitrile, respectively. Mobile phases A and B were pumped through a ZORBAX Eclipse XDB-C18 column (150 mm×2.1 mm I.D., 3.5 µm, Agilent USA) at a flow rate of 0.2 mL/min using the gradient shown in Table 1. Separation was conducted at 30°C. 15- µL aliquots were injected and the autosampler needle was rinsed in acetonitrile/water solution (1∶1). The total run time was 20 min. During the first 4.0 and last 2.0 min, the eluate was removed using a divert valve to avoid endogenous compounds entering the mass spectrometer.
As a detector, we used an A 6410 Triple Quadrupole mass spectrometer (Agilent Technologies, USA) equipped with a heated electrospray ionization source (Thermo Fisher Scientific, Waltham, MA, USA) operating in positive ion mode. For quantification, multiple reaction monitoring (MRM) chromatograms were acquired using Mass Hunter software version B.01.04 (Agilent Technologies, USA). Positive ions were created at atmospheric pressure. Quadrupoles operated at unit resolution (0.7 Da).
A 300- µL volume of 1% formic acid in acetonitrile containing internal standards was added to a 100- µL serum aliquot. After vortexing and centrifugation, the clear supernatant was transferred to a HybridSPE column (Supelco) and the eluents stored at 2–8°C until analysis. Samples were analyzed in triplicate.
Descriptive statistics were calculated using standard methods. Metabolic ratios were calculated as the concentration of substrate/concentration of metabolite. The non-normal distribution of data was confirmed by the Kolmogorov-Smirnov test. Levels of TAM, metabolites and ratios between genotype groups were compared using Wilcoxon-Mann-Whitney or Kruskal-Wallis tests. All statistical tests (two-sided) were performed using SPSS software (version 18.0 SPSS, Chicago, IL). Significance was set at a p<0.05.

CC/C(=C(\c1ccccc1)c1ccc(OCCN(C)C)cc1)c1ccccc1 [Tamoxifen, reference compound]
plasma concentration, mean ±SD (genotype CYP2D6 I/I, n = 1): 130.54 ± 0.00 ng/mL | plasma concentration, median (genotype CYP2D6 I/I, n = 1): 130.54 ng/mL | plasma concentration, range (genotype CYP2D6 I/I, n = 1): (130.54–130.54) ng/mL | plasma concentration, range (genotype CYP2D6 I/P, n = 8): (88.08–289.96) ng/mL | plasma concentration, mean ±SD (genotype CYP2D6 P/P, n = 2): 278.43 ± 132.13 ng/mL | plasma concentration, median (genotype CYP2D6 P/P, n = 2): 278.43 ng/mL | plasma concentration, range (genotype CYP2D6 P/P, n = 2): (185.00–371.83) ng/mL | plasma concentration, mean ±SD (genotype CYP2D6 wt/I, n = 4): 208.48 ± 66.06 ng/mL | plasma concentration, range (genotype CYP2D6 wt/I, n = 4): (151.94–302.03) ng/mL | plasma concentration, mean ±SD (genotype CYP2D6 wt/P, n = 26): 209.57 ± 121.53 ng/mL | plasma concentration, range (genotype CYP2D6 wt/P, n = 26): (89.79–576.23) ng/mL | plasma concentration, mean ±SD (genotype CYP2D6 wt/wt, n = 78): 203.05 ± 80.53 ng/mL | plasma concentration, range (genotype CYP2D6 wt/wt, n = 78): (77.10–573.83) ng/mL | plasma concentration, range (genotype CYP2D6 wtxN/P, n = 2): (102.91–264.41) ng/mL | plasma concentration, mean ±SD (genotype CYP3A4 wt/*1B, n = 3): 260.69 ± 136.19 ng/mL | plasma concentration, median (genotype CYP3A4 wt/*1B, n = 3): 261.00 ng/mL | plasma concentration, range (genotype CYP3A4 wt/*1B, n = 3): (124.35–396.73) ng/mL | plasma concentration, mean ±SD (genotype CYP3A4 wt/*3, n = 2): 212.83 ± 68.55 ng/mL | plasma concentration, median (genotype CYP3A4 wt/*3, n = 2): 212.83 ng/mL | plasma concentration, range (genotype CYP3A4 wt/*3, n = 2): (164.35–261.30) ng/mL | plasma concentration, mean ±SD (genotype CYP3A4 wt/*17, n = 9): 230.28 ± 153.17 ng/mL | plasma concentration, range (genotype CYP3A4 wt/*17, n = 9): (88.08–573.83) ng/mL | plasma concentration, mean ±SD (genotype CYP3A4 wt/wt, n = 107): 198.93 ± 89.59 ng/mL | plasma concentration, range (genotype CYP3A4 wt/wt, n = 107): (77.10–576.23) ng/mL | plasma concentration, mean ±SD (genotype CYP3A5 *3/*3, n = 117): 204.98 ± 96.33 ng/mL | plasma concentration, range (genotype CYP3A5 *3/*3, n = 117): (77.10–576.23) ng/mL | plasma concentration, mean ±SD (genotype CYP3A5 wt/*3, n = 6): 164.16 ± 51.72 ng/mL | plasma concentration, median (genotype CYP3A5 wt/*3, n = 6): 160.17 ng/mL | plasma concentration, range (genotype CYP3A5 wt/*3, n = 6): (112.43–235.19) ng/mL | plasma concentration, mean ±SD (genotype SULT1A1 *2/*2, n = 15): 205.87 ± 101.52 ng/mL | plasma concentration, median (genotype SULT1A1 *2/*2, n = 15): 161.90 ng/mL | plasma concentration, range (genotype SULT1A1 *2/*2, n = 15): (102.43–396.73) ng/mL | plasma concentration, mean ±SD (genotype SULT1A1 wt/*2, n = 46): 204.84 ± 107.12 ng/mL | plasma concentration, range (genotype SULT1A1 wt/*2, n = 46): (77.10–573.83) ng/mL | plasma concentration, mean ±SD (genotype SULT1A1 wt/wt, n = 60): 200.92 ± 86.14 ng/mL | plasma concentration, range (genotype SULT1A1 wt/wt, n = 60): (88.08–576.23) ng/mL | plasma concentration, range (genotype SULT1A2 *2/*2, n = 16): (95.67–396.73) ng/mL | plasma concentration, mean ±SD (genotype SULT1A2 *2/*3, n = 13): 222.50 ± 93.29 ng/mL | plasma concentration, median (genotype SULT1A2 *2/*3, n = 13): 240.78 ng/mL | plasma concentration, range (genotype SULT1A2 *2/*3, n = 13): (112.43–371.37) ng/mL | plasma concentration, median (genotype SULT1A2 *3/*3, n = 5): 164.35 ng/mL | plasma concentration, range (genotype SULT1A2 *3/*3, n = 5): (122.20–302.03) ng/mL | plasma concentration, mean ±SD (genotype SULT1A2 wt/*2, n = 33): 227.33 ± 131.55 ng/mL | plasma concentration, range (genotype SULT1A2 wt/*2, n = 33): (88.08–576.23) ng/mL | plasma concentration, range (genotype SULT1A2 wt/*3, n = 16): (89.79–378.32) ng/mL | plasma concentration, range (genotype SULT1A2 wt/wt, n = 38): (77.10–375.04) ng/mL | plasma concentration, mean ±SD (genotype SULT1E1 *2/*2, n = 5): 232.36 ± 83.23 ng/mL | plasma concentration, median (genotype SULT1E1 *2/*2, n = 5): 202.74 ng/mL | plasma concentration, range (genotype SULT1E1 *2/*2, n = 5): (166.20–375.04) ng/mL | plasma concentration, mean ±SD (genotype SULT1E1 wt/*2, n = 28): 200.49 ± 77.50 ng/mL | plasma concentration, range (genotype SULT1E1 wt/*2, n = 28): (77.10–368.73) ng/mL | plasma concentration, mean ±SD (genotype SULT1E1 wt/wt, n = 88): 202.17 ± 101.97 ng/mL | plasma concentration, range (genotype SULT1E1 wt/wt, n = 88): (89.79–576.23) ng/mL

4-hydroxy-tamoxifen [4-OH-tamoxifen]
median plasma concentration (all samples analyzed, n = 125, before daily 20 mg TAM dose): 6.75 ng/mL
